According to ChEMBL document CHEMBL4477263, “Nature-inspired design of tetraindoles: Optimization of the core structure and evaluation of structure-activity relationship” (Bioorg Med Chem Lett, 2016):
Values belong to the compound of their own block, whether it stands above or below them. The source made the active and inactive calls. The calls are words filed in the database; no cut-off is given here.

How the values were obtained:
MDA-MB-231 [1] = test: Antiproliferative activity against human MDA-MB-231 cells after 48 hrs by MTT assay; assay type: functional, cell-based; details: MDA-MB-231, 48 h
MDA-MB-231 [2] = test: Antiproliferative activity against human MDA-MB-231 cells at 20 uM after 48 hrs by MTT assay; assay type: functional, cell-based
MIA PaCa-2 [3] = test: Induction of apoptosis in human MIAPaCa2 cells assessed as down regulation of Bcl-2 protein expression at 0.2 to 0.8 uM after 12 to 48 hrs by western immunoblot analysis; assay type: functional, cell-based
A549 = test: Antiproliferative activity against human A549 cells after 48 hrs by MTT assay; assay type: functional, cell-based; details: A549, 48 h
MIA PaCa-2 [4] = test: Induction of apoptosis in human MIAPaCa2 cells assessed as late apoptotic cells at 0.6 uM after 36 hrs by Annexin V-FITC/propidium iodide staining based flow cytometry (reference value: 0.24%); assay type: functional
MIA PaCa-2 [5] = test: Induction of apoptosis in human MIAPaCa2 cells assessed as upregulation of cleaved PARP protein expression at 0.2 to 0.8 uM after 12 to 48 hrs by western immunoblot analysis; assay type: functional, cell-based
MIA PaCa-2 [6] = test: Cell cycle arrest in human MIAPaCa2 cells assessed as accumulation in G2/M phase at 0.6 uM after 36 hrs by propidium iodide staining based flow cytometry relative to control; assay type: functional
MIA PaCa-2 [7] = test: Cell cycle arrest in human MIAPaCa2 cells assessed as accumulation in S phase at 0.6 uM after 24 hrs by propidium iodide staining based flow cytometry (reference value: 38%); assay type: functional
MIA PaCa-2 [8] = test: Induction of apoptosis in human MIAPaCa2 cells assessed as necrotic cells at 0.6 uM after 48 hrs by Annexin V-FITC/propidium iodide staining based flow cytometry (reference value: 0.06%); assay type: functional
MIA PaCa-2 [9] = test: Induction of apoptosis in human MIAPaCa2 cells assessed as late apoptotic cells at 0.6 uM after 24 hrs by Annexin V-FITC/propidium iodide staining based flow cytometry (reference value: 0.16%); assay type: functional
MIA PaCa-2 [10] = test: Induction of apoptosis in human MIAPaCa2 cells assessed as late apoptotic cells at 0.6 uM after 12 hrs by Annexin V-FITC/propidium iodide staining based flow cytometry (reference value: 0.07%); assay type: functional
HCT-116 = test: Antiproliferative activity against human HCT116 cells after 48 hrs by MTT assay; assay type: functional, cell-based; details: HCT-116, 48 h
MIA PaCa-2 [11] = test: Induction of apoptosis in human MIAPaCa2 cells assessed as live cells at 0.6 uM after 48 hrs by Annexin V-FITC/propidium iodide staining based flow cytometry (reference value: 98.4%); assay type: functional
MIA PaCa-2 [12] = test: Cell cycle arrest in human MIAPaCa2 cells assessed as accumulation in G2/M phase at 0.6 uM after 24 hrs by propidium iodide staining based flow cytometry relative to control; assay type: functional
MIA PaCa-2 [13] = test: Induction of apoptosis in human MIAPaCa2 cells assessed as early apoptotic cells at 0.6 uM after 24 hrs by Annexin V-FITC/propidium iodide staining based flow cytometry (reference value: 1.49%); assay type: functional
MIA PaCa-2 [14] = test: Induction of apoptosis in human MIAPaCa2 cells assessed as live cells at 0.6 uM after 12 hrs by Annexin V-FITC/propidium iodide staining based flow cytometry (reference value: 98.9%); assay type: functional
MIA PaCa-2 [15] = test: Induction of apoptosis in human MIAPaCa2 cells assessed as necrotic cells at 0.6 uM after 12 hrs by Annexin V-FITC/propidium iodide staining based flow cytometry (reference value: 0.04%); assay type: functional
MIA PaCa-2 [16] = test: Induction of apoptosis in human MIAPaCa2 cells assessed as necrotic cells at 0.6 uM after 24 hrs by Annexin V-FITC/propidium iodide staining based flow cytometry (reference value: 0.06%); assay type: functional
[17] = Antiproliferative activity against human CL1-5 cells after 48 hrs by MTT assay; assay type: functional, cell-based; details: CL1-5, 48 h
Mahlavu = test: Antiproliferative activity against human Mahlavu cells after 48 hrs by MTT assay; assay type: functional, cell-based
MIA PaCa-2 [18] = test: Induction of apoptosis in human MIAPaCa2 cells assessed as early apoptotic cells at 0.6 uM after 36 hrs by Annexin V-FITC/propidium iodide staining based flow cytometry (reference value: 1.7%); assay type: functional
NCI-H460 = test: Antiproliferative activity against human H460 cells after 48 hrs by MTT assay; assay type: functional, cell-based; details: NCI-H460, 48 h
SK-HEP1 = test: Antiproliferative activity against human SKHEP1 cells after 48 hrs by MTT assay; assay type: functional, cell-based; details: SK-HEP1, 48 h
MIA PaCa-2 [19] = test: Antitumor activity against human MIAPaCa2 cells xenografted in NOD/SCID mouse assessed as tumor growth inhibition at 25 mg/kg, ip administered every 3.5 days per week for 5 weeks measured on day 38 post treatment relative to control; assay type: functional; details: MIA PaCa-2, ip, read-out: TGI
MIA PaCa-2 [20] = test: Induction of apoptosis in human MIAPaCa2 cells assessed as live cells at 0.6 uM after 24 hrs by Annexin V-FITC/propidium iodide staining based flow cytometry (reference value: 98.3%); assay type: functional
MIA PaCa-2 [21] = test: Cell cycle arrest in human MIAPaCa2 cells assessed as accumulation in S phase at 0.6 uM after 48 hrs by propidium iodide staining based flow cytometry (reference value: 19.7%); assay type: functional
MIA PaCa-2 [22] = test: Induction of apoptosis in human MIAPaCa2 cells assessed as down regulation of Bak protein expression at 0.2 to 0.8 uM after 12 to 48 hrs by western immunoblot analysis; assay type: functional, cell-based
MIA PaCa-2 [23] = test: Cell cycle arrest in human MIAPaCa2 cells assessed as accumulation in S phase at 0.6 uM after 36 hrs by propidium iodide staining based flow cytometry (reference value: 38%); assay type: functional
NCI-H441 = test: Antiproliferative activity against human H441 cells after 48 hrs by MTT assay; assay type: functional, cell-based; details: NCI-H441, 48 h
MIA PaCa-2 [24] = test: Induction of apoptosis in human MIAPaCa2 cells assessed as early apoptotic cells at 0.6 uM after 48 hrs by Annexin V-FITC/propidium iodide staining based flow cytometry (reference value: 1.28%); assay type: functional
U-87 MG = test: Antiproliferative activity against human U87 cells after 48 hrs by MTT assay; assay type: functional, cell-based, U-87MG ATCC
MIA PaCa-2 [25] = test: Induction of apoptosis in human MIAPaCa2 cells assessed as late apoptotic cells at 0.6 uM after 48 hrs by Annexin V-FITC/propidium iodide staining based flow cytometry (reference value: 0.21%); assay type: functional
[26] = Toxicity in NOD/SCID mouse xenografted with human MIAPaCa2 cells assessed as body weight loss at 25 mg/kg, ip administered every 3.5 days per week for 5 weeks; assay type: organism-based; details: in vivo
MIA PaCa-2 [27] = test: Cell cycle arrest in human MIAPaCa2 cells assessed as accumulation in G2/M phase at 0.6 uM after 48 hrs by propidium iodide staining based flow cytometry relative to control; assay type: functional
MIA PaCa-2 [28] = test: Induction of apoptosis in human MIAPaCa2 cells assessed as early apoptotic cells at 0.6 uM after 12 hrs by Annexin V-FITC/propidium iodide staining based flow cytometry (reference value: 1%); assay type: functional
MIA PaCa-2 [29] = test: Antiproliferative activity against human MIAPaCa2 cells after 48 hrs by MTT assay; assay type: functional, cell-based; details: MIA PaCa-2, 48 h
MIA PaCa-2 [30] = test: Induction of apoptosis in human MIAPaCa2 cells assessed as live cells at 0.6 uM after 36 hrs by Annexin V-FITC/propidium iodide staining based flow cytometry (reference value: 98%); assay type: functional
MIA PaCa-2 [31] = test: Induction of apoptosis in human MIAPaCa2 cells assessed as necrotic cells at 0.6 uM after 36 hrs by Annexin V-FITC/propidium iodide staining based flow cytometry (reference value: 0.06%); assay type: functional

IC50 (MDA-MB-231 [1]): 4000 nM
Compound: Oc1ccc2[nH]cc(C(c3c[nH]c4ccc(O)cc34)c3cccc4c(C(c5c[nH]c6ccc(O)cc56)c5c[nH]c6ccc(O)cc56)cccc34)c2c1

IC50 (MDA-MB-231 [1]): 8000 nM
Compound: Cc1cc(C(c2c[nH]c3ccc(O)cc23)c2c[nH]c3ccc(O)cc23)c(C)cc1C(c1c[nH]c2ccc(O)cc12)c1c[nH]c2ccc(O)cc12

IC50 (MDA-MB-231 [1]): > 20000 nM
Compound: Oc1ccc2[nH]cc(C(c3ccc4ccc(C(c5c[nH]c6ccc(O)cc56)c5c[nH]c6ccc(O)cc56)cc4c3)c3c[nH]c4ccc(O)cc34)c2c1

IC50 (MDA-MB-231 [1]): 10000 nM
Compound: Oc1ccc2[nH]cc(C(c3ccc(-c4ccc(C(c5c[nH]c6ccc(O)cc56)c5c[nH]c6ccc(O)cc56)cc4)cc3)c3c[nH]c4ccc(O)cc34)c2c1

IC50 (MDA-MB-231 [1]): > 20000 nM
Compound: Oc1ccc2[nH]cc(C(c3ccc4cc(C(c5c[nH]c6ccc(O)cc56)c5c[nH]c6ccc(O)cc56)ccc4c3)c3c[nH]c4ccc(O)cc34)c2c1

IC50 (MDA-MB-231 [1]): 560 nM
Compound: Oc1ccc2[nH]cc(C(c3c(F)c(F)c(C(c4c[nH]c5ccc(O)cc45)c4c[nH]c5ccc(O)cc45)c(F)c3F)c3c[nH]c4ccc(O)cc34)c2c1

Compound: Oc1ccc2[nH]cc(C(c3ccc(-c4cc(C(c5c[nH]c6ccc(O)cc56)c5c[nH]c6ccc(O)cc56)c(-c5ccc(C(c6c[nH]c7ccc(O)cc67)c6c[nH]c7ccc(O)cc67)cc5)cc4C(c4c[nH]c5ccc(O)cc45)c4c[nH]c5ccc(O)cc45)cc3)c3c[nH]c4ccc(O)cc34)c2c1
Activity (MDA-MB-231 [2]): inactive

IC50 (MDA-MB-231 [1]): 1500 nM
Compound: Oc1ccc2[nH]cc(C(c3c[nH]c4ccc(O)cc34)c3c4c(c(C(c5c[nH]c6ccc(O)cc56)c5c[nH]c6ccc(O)cc56)c5ccccc35)CCCC4)c2c1

IC50 (MDA-MB-231 [1]): 710 nM
Compound: Oc1ccc2[nH]cc(C(c3c[nH]c4ccc(O)cc34)c3c4ccccc4c(C(c4c[nH]c5ccc(O)cc45)c4c[nH]c5ccc(O)cc45)c4ccccc34)c2c1

IC50 (MDA-MB-231 [1]): 20000 nM
Compound: Oc1ccc2[nH]cc(C(c3c[nH]c4ccc(O)cc34)c3ccc(C(c4c[nH]c5ccc(O)cc45)c4c[nH]c5ccc(O)cc45)c4ccccc34)c2c1

IC50 (MDA-MB-231 [1]): 2450 nM
Compound: Oc1ccc2[nH]cc(C(c3cc(Br)c(C(c4c[nH]c5ccc(O)cc45)c4c[nH]c5ccc(O)cc45)cc3Br)c3c[nH]c4ccc(O)cc34)c2c1

IC50 (MDA-MB-231 [1]): 1020 nM
Compound: Cc1c(C)c(C(c2c[nH]c3ccc(O)cc23)c2c[nH]c3ccc(O)cc23)c(C)c(C)c1C(c1c[nH]c2ccc(O)cc12)c1c[nH]c2ccc(O)cc12

IC50 (MDA-MB-231 [1]): 2000 nM
Compound: Oc1ccc2[nH]cc(C(/C=C/c3ccc(/C=C/C(c4c[nH]c5ccc(O)cc45)c4c[nH]c5ccc(O)cc45)cc3)c3c[nH]c4ccc(O)cc34)c2c1

IC50 (MDA-MB-231 [1]): > 20000 nM
Compound: Oc1ccc2[nH]cc(C(/C=C/c3ccc(C(CC(c4c[nH]c5ccc(O)cc45)c4c[nH]c5ccc(O)cc45)c4c[nH]c5ccc(O)cc45)cc3)c3c[nH]c4ccc(O)cc34)c2c1 (stereo not drawn)

IC50 (MDA-MB-231 [1]): > 20000 nM
Compound: Oc1ccc2[nH]cc(C(Cc3ccc(CC(c4c[nH]c5ccc(O)cc45)c4c[nH]c5ccc(O)cc45)cc3)c3c[nH]c4ccc(O)cc34)c2c1

IC50 (A549): 2440 nM
IC50 (HCT-116): 1320 nM
IC50 (MDA-MB-231 [1]): 560 nM
IC50 (NCI-H460): 830 nM
IC50 (SK-HEP1): 470 nM
IC50 (NCI-H441): 600 nM
IC50 (U-87 MG): > 5000 nM
IC50 (MIA PaCa-2 [29]): 190 nM
Compound: Oc1ccc2[nH]cc(C(c3c(Cl)c(Cl)c(C(c4c[nH]c5ccc(O)cc45)c4c[nH]c5ccc(O)cc45)c(Cl)c3Cl)c3c[nH]c4ccc(O)cc34)c2c1
Activity (MIA PaCa-2 [3]): Active
Activity (MIA PaCa-2 [4]): 0.96%
Activity (MIA PaCa-2 [5]): Active
Activity (MIA PaCa-2 [6]): 16%
Activity (MIA PaCa-2 [7]): 55.8%
Activity (MIA PaCa-2 [8]): 0.23%
Activity (MIA PaCa-2 [9]): 0.3%
Activity (MIA PaCa-2 [10]): 0.58%
Activity (MIA PaCa-2 [11]): 93.3%
Activity (MIA PaCa-2 [12]): 12%
Activity (MIA PaCa-2 [13]): 2.1%
Activity (MIA PaCa-2 [14]): 98.6%
Activity (MIA PaCa-2 [15]): 0.09%
Activity (MIA PaCa-2 [16]): 0.03%
IC50 [17]: 630 nM
IC50 (Mahlavu): 3500 nM
Activity (MIA PaCa-2 [18]): 3.21%
inhibition in vivo at 25 mg/kg (MIA PaCa-2 [19]): 35%
Activity (MIA PaCa-2 [20]): 97.6%
Activity (MIA PaCa-2 [21]): 46.4%
Activity (MIA PaCa-2 [22]): Active
Activity (MIA PaCa-2 [23]): 51.4%
Activity (MIA PaCa-2 [24]): 5.28%
Activity (MIA PaCa-2 [25]): 1.18%
Activity [26]: Non-Toxic
Activity (MIA PaCa-2 [27]): 20%
Activity (MIA PaCa-2 [28]): 0.71%
Activity (MIA PaCa-2 [30]): 95.6%
Activity (MIA PaCa-2 [31]): 0.2%

IC50 (MDA-MB-231 [1]): > 20000 nM
Compound: Oc1ccc2[nH]cc(C(c3ccc4ccc5ccc(C(c6c[nH]c7ccc(O)cc67)c6c[nH]c7ccc(O)cc67)nc5c4n3)c3c[nH]c4ccc(O)cc34)c2c1
